Results as given in the NIST ThermoML archive (doi:10.1021/je301123j).
± gives the expanded uncertainty stated by the source.

Experiment: xn = mol fraction of the nth substance listed
Details: for surface tension liquid-gas: Ring tensiometer; for mass density / speed of sound / viscosity: 100 kPa, Liquid

CCN1CCCC1=O [1-ethyl-2-pyrrolidinone] + OCCN(CCO)CCO
Details | mass density [kg/m3] | speed of sound [m/s] | surface tension liquid-gas [mN/m] | viscosity [mPa·s]
293.15 K, x1 = 0.1001 | 1112.5 ± 2.1 | 1611.4 ± 3.9 | 44.7 ± 0.8 | 570.35 ± 47
293.15 K, x1 = 0.2 | 1101.3 ± 2 | 1598.1 ± 3.9 | 43.4 ± 0.8 | 312.31 ± 20
293.15 K, x1 = 0.3 | 1089.95 ± 2 | 1585.4 ± 3.9 | 42 ± 0.8 | 164.25 ± 7
293.15 K, x1 = 0.4004 | 1077.59 ± 1.9 | 1574.5 ± 3.9 | 40.9 ± 0.8 | 81.22 ± 1.8
293.15 K, x1 = 0.5001 | 1066.06 ± 1.9 | 1565.5 ± 4 | 40.1 ± 0.8 | 41.49 ± 0.66
293.15 K, x1 = 0.6002 | 1053.3 ± 1.8 | 1555.6 ± 4 | 39.2 ± 0.8 | 21.52 ± 0.35
293.15 K, x1 = 0.7002 | 1040.32 ± 1.8 | 1545.9 ± 4 | 38.3 ± 0.8 | 11.54 ± 0.19
293.15 K, x1 = 0.8 | 1026.31 ± 1.7 | 1536.1 ± 4.1 | 37.8 ± 0.8 | 6.382 ± 0.11
293.15 K, x1 = 0.8998 | 1012.14 ± 1.6 | 1525.5 ± 4.1 | 36.9 ± 0.8 | 3.627 ± 0.063
293.15 K, x1 = 1 | 997.91 ± 1.6 | 1513.2 ± 4.1 | 36.5 ± 0.8 | 2.132 ± 0.032
303.15 K, x1 = 0.1001 | 1106.6 ± 2 | 1588.7 ± 3.9 | 43.9 ± 0.8 | 252.99 ± 14
303.15 K, x1 = 0.2 | 1095.17 ± 2 | 1575.4 ± 3.9 | 42.3 ± 0.8 | 151.13 ± 5.9
303.15 K, x1 = 0.3 | 1083.52 ± 1.9 | 1562.2 ± 3.9 | 41.3 ± 0.8 | 85.6 ± 1.9
303.15 K, x1 = 0.4004 | 1070.78 ± 1.9 | 1548.9 ± 3.9 | 40.2 ± 0.8 | 46.14 ± 0.69
303.15 K, x1 = 0.5001 | 1058.92 ± 1.8 | 1538.5 ± 3.9 | 39.2 ± 0.8 | 25.54 ± 0.38
303.15 K, x1 = 0.6002 | 1045.86 ± 1.8 | 1526.5 ± 4 | 38.6 ± 0.8 | 14.29 ± 0.22
303.15 K, x1 = 0.7002 | 1032.59 ± 1.7 | 1514.2 ± 4 | 37.5 ± 0.8 | 8.268 ± 0.13
303.15 K, x1 = 0.8 | 1018.3 ± 1.6 | 1502.2 ± 4 | 36.7 ± 0.8 | 4.866 ± 0.081
303.15 K, x1 = 0.8998 | 1003.86 ± 1.5 | 1490.5 ± 4.1 | 36 ± 0.8 | 2.902 ± 0.049
303.15 K, x1 = 1 | 989.34 ± 1.6 | 1475 ± 4.1 | 35.2 ± 0.8 | 1.777 ± 0.027
313.15 K, x1 = 0.1001 | 1100.7 ± 2 | 1569.8 ± 3.8 | 43 ± 0.8 | 132.88 ± 4.6
313.15 K, x1 = 0.2 | 1088.99 ± 1.9 | 1555.1 ± 3.9 | 41.6 ± 0.8 | 82.06 ± 1.6
313.15 K, x1 = 0.3 | 1076.98 ± 1.9 | 1540.4 ± 3.9 | 40.6 ± 0.8 | 47.47 ± 0.66
313.15 K, x1 = 0.4004 | 1063.92 ± 1.8 | 1524.8 ± 3.9 | 39.4 ± 0.8 | 28.4 ± 0.4
313.15 K, x1 = 0.5001 | 1051.74 ± 1.7 | 1512.2 ± 3.9 | 38.3 ± 0.8 | 16.84 ± 0.24
313.15 K, x1 = 0.6002 | 1038.43 ± 1.7 | 1497.6 ± 3.9 | 37.6 ± 0.8 | 10.07 ± 0.15
313.15 K, x1 = 0.7002 | 1024.86 ± 1.6 | 1483.1 ± 4 | 36.4 ± 0.8 | 6.178 ± 0.096
313.15 K, x1 = 0.8 | 1010.29 ± 1.5 | 1468.6 ± 4 | 35.8 ± 0.8 | 3.794 ± 0.062
313.15 K, x1 = 0.8998 | 995.57 ± 1.5 | 1456.6 ± 4 | 35 ± 0.8 | 2.379 ± 0.04
313.15 K, x1 = 1 | 980.76 ± 1.7 | 1437.6 ± 4.1 | 34.2 ± 0.8 | 1.515 ± 0.023
323.15 K, x1 = 0.1001 | 1094.74 ± 1.9 | 1551.9 ± 3.8 | – | 75.13 ± 1.3
323.15 K, x1 = 0.2 | 1082.69 ± 1.9 | 1534.9 ± 3.8 | – | 46.57 ± 0.6
323.15 K, x1 = 0.3 | 1070.36 ± 1.8 | 1517.4 ± 3.9 | – | 29.62 ± 0.38
323.15 K, x1 = 0.4004 | 1057 ± 1.7 | 1500.3 ± 3.9 | – | 18.7 ± 0.25
323.15 K, x1 = 0.5001 | 1044.54 ± 1.7 | 1485.3 ± 3.9 | – | 11.73 ± 0.17
323.15 K, x1 = 0.6002 | 1030.97 ± 1.6 | 1469.1 ± 3.9 | – | 7.428 ± 0.11
323.15 K, x1 = 0.7002 | 1017.11 ± 1.5 | 1452.3 ± 3.9 | – | 4.758 ± 0.074
323.15 K, x1 = 0.8 | 1002.27 ± 1.4 | 1435.5 ± 4 | – | 3.06 ± 0.049
323.15 K, x1 = 0.8998 | 987.27 ± 1.6 | 1422.3 ± 4 | – | 1.994 ± 0.033
323.15 K, x1 = 1 | 972.16 ± 1.8 | 1400.6 ± 4 | – | 1.31 ± 0.02
